Measurements: patent publication US20070111258A1, “Compositions and methods for modulating the acute phase response” (priority 2005, published 2007)

B1: IL1β: pro-inflammatory cytokine; recombinant murine IL1β in vivo (protein, UniProt P10749 118-269, looked up)
Interleukin-1 beta: VPIRQLHYRLRDEQQKSLVLSDPYELKALHLNGQNINQQVIFSMSFVQGEPSNDKIPVALGLKGKNLYLSCVMKDGTPTLQLESVDPKQYPKKKMEKRFVFNKIEVKSKVEFESAEFPNWYISTSQAEHKPVFLGNNSGQDIIDFTMESVSS
B2: interleukin-6 (protein, UniProt P08505 25-211, looked up)
Interleukin-6: FPTSQVRRGDFTEDTTPNRPVYTTSQVGGLITHVLWEIVEMRKELCNGNSDCMNNDDALAENNLKLPEIQRNDGCYQTGYNQEICLLKISSGLLEYHSYLEYMKNNLKDNKKDKARVLQRDTETLIHIFNQEVKDLHKIVLPTPISNALLTDKLESQKEWLRTKTIQFILKSLEEFLKVTLRSTRQT
notes: pro-inflammatory cytokine; recombinant murine IL6 in vivo

Tests used:
human CREBH = assay: Cleavage of flag-tagged human CREBH stably expressed in H2.35 cells (Western blot, cell fractionation); assay type: cell-based; conditions: H2.35 cells stably expressing flag-tagged human CREBH; 8 hours; BFA 0.5 μg/ml, TNFα 20 ng/ml, IL6 40 ng/ml, DTT 5 mM, Tg 0.5 μM, Tm 5 μg/ml
Procedure: FIG. 3 depicts the effects of ER stress on CREBH: proteolytic cleavage of CREBH to release its N-terminal fragment that translocates into the nucleus. (A) Illustration of transmembrane domains and lumenal domains of SREBP, ATF6, Luman and CREBH in human (hs), mouse (mm). The conserved residues for S1P and S2P recognition are highlighted. (B) Cleavage of CREBH in H2.35 cells under different stimuli. H2.35 cells stably expressing flag-tagged human CREBH were treated with 0.5 μg/ml BFA, 20 ng/ml TNFα, 40 ng/ml IL6, 5 mM DTT, 0.5 μM Tg or 5 μg/ml Tm for 8 hours. Untransfected H2.35 cells (lane 1) and the H2.35 cells that stably express human CREBH (lane 2) were cultured under normal conditions as control. Total cell lysates were collected for Western blot analysis by using an anti-flag monoclonal antibody (upper panel). Levels of α-actin were determined for control of protein loading (lower panel). (C) Cleavage of CREBH in H2.35 cells under Tm treatment for various time periods. The H2.35 cells stably expressing flag-tagged CREBH were cultured in the absence or presence of Tm (5 μg/ml) for 4, 8 or 12 hours. Membrane fractions were isolated from the total cell lysates, and were subjected to Western blot analysis of CREBH and calnexin, respectively. Nuclear fractions were isolated from the same total cell lysates and subjected to Western blot analysis of CREBH and PARP, respectively. (D) Translocation of CREBH in COS7 cells. COS7 cells were co-transfected with a construct expressing flag-tagged full-length CREBH (CREBH-F) or CREBH-ΔC and a construct expressing KDEL-RFP, and were then cultured in the absence or presence of Tm (5 μg/ml) for 4 hours. Cells were then stained with FITC-conjugated anti-flag antibody and subjected to Zeiss Confocal Microscope analysis. Magnification: 40×10.
For analysis of expression and cleavage of CREBH protein, total cell lysates were prepared from H2.35 cells or COS7 cells using Nonidet P-40 lysis buffer (1% NP-40, 50 mM Tris-HCl at pH 7.5, 150 mM NaCl, 0.05% SDS) supplemented with protease inhibitors (Complete Mini from Roche Applied Science), 0.1 mM sodium vanadate, and 1 mM sodium fluoride. Membrane and nuclear fractions of cell lysates were isolated as previously described (Dignam et al., 1983). The total cell lysate, membrane and nuclear fractions were subjected to SDS-PAGE and then analyzed by Western blot using anti-flag monoclonal antibody or other antibodies. Immunoprecipitation and Western blot analyses of ATF6 and CREBH interaction in 293T cells expressing flag-tagged CREBH protein were performed by using anti-human ATF6 and anti-flag antibodies. Total cell lysates from 293T cells transfected with control vector or pFlag-CREBH-ΔC were immunoprecipitated with anti-human ATF6 polyclonal antibody and anti-flag antibody, respectively. The immunoprecipitated cell lysates were then subjected to Western blotting by using anti-flag antibody to detect CREBH protein and using anti-human ATF6 antibody to detect ATF6 protein, respectively. The same total cell lysates were subjected to Western blotting by using anti-flag antibody to detect expression of CREBH protein in the transfected cells. For detecting endogenous CREBH protein in the liver extracts, an anti-mouse CREBH polyclonal antibody was raised in rabbits against a purified mouse CREBH peptide composed of amino acids 92-109 [[…]]. The rabbit anti-human ATF6 polyclonal antibody was generated in the inventor's laboratory. The anti-mouse calnexin monoclonal antibody and the anti-mouse monoclonal PRAP antibody were purchased from Stressgen Biotechnologies (Victoria, BC, Canada) and BD Bioscience (Mountain View, Calif., USA), respectively.

CREBH mRNA = CREBH mRNA induction in H2.35 cells (Northern blot, quantitative real-time RT-PCR); assay type: cell-based; conditions: murine H2.35 hepatoma cells; IL6 40 ng/ml, TNFα 20 ng/ml, IL1β 40 ng/ml, DTT 5 mM, Tg 0.5 μM, Tm 5 μg/ml, BFA 0.5 μg/ml; 4, 8, 12 hours
Procedure: FIG. 1 depicts the induction of expression of CREBH during fetal liver development and by proinflammatory cytokines. (A) Structural comparison of CREBH and ATF6. The domains are indicated by residue numbers of amino acids. (B) Northern blot analysis of CREBH mRNA levels in various tissues from mice. Tissue samples were collected from 3-month-old wild-type C57BL/6J mice. Levels of β-actin mRNA were determined for control of sample loading. (C) Expression profile of CREBH mRNA in fetal livers during embryogenesis. (D) Induction of CREBH mRNA in murine hepatoma cell line H2.35 under IL6 (40 ng/ml) stimulation for various time points. For panels A-D, experiments were performed at least 3 times and representative data are shown.
FIG. 2 depicts the analysis of gene expression in H2.35 cells. H2.35 cells were treated with 20 ng/ml TNFα, 40 ng/ml IL1β, 20 μg.ml LPS, 5 mM DTT, 0.5 μM Tg, 5 μg/ml Tm or 0.5 μg/ml BFA for 4, 8 and 12 hours, respectively. Levels of CREBH mRNA (A) and spliced XBP1 mRNA (B) in H2.35 were determined by quantitative real-time RT-PCR. Fold changes of mRNA induction were determined after normalization of the mRNA levels to internal control 18S ribosomal RNA levels. […] However, expression from the SAP or CRP promoter-reporter plasmids is sufficiently measurable in H2.35 cells so that it is possible to investigate transcriptional activation effects of CREBH on the CRP and SAP promoters by reporter assays in H2.35 cells. These reporter experiments are not possible in non-hepatocyte cell lines. However, for non-hepatocyte cell lines, such as wild-type and mutant CHO cells, CREBH cleavage and activation could be measured using the UPRE reporter assay. (C) Summary of stimuli that induce CREBH mRNA, NF-κB activation and the UPR in H2.35 and HepG2 cells. (D) Expression of BiP and GRP94 in H2.35 cells over-expressing CREBH or ATF6. H2.35 cells in a 35 mm collagen-coated plate were transfected with 1.5 μg empty DNA vector, vector expressing the nuclear form of CREBH (CREBH-N) or vector expressing nuclear form of ATF6 (ATF6 p50), respectively. Expression levels of BiP and GRP 94 were determined by Western blot analysis by using a murine and —BiP monoclonal antibody and a murine anti-GRP94 monoclonal antibody, respectively. The membranes were re-blotted with an anti-α-actin antibody for control of sample loading.
Northern blot analysis was performed according to standard procedures (Sambrook et al., 1989). ^32P-labeled probes were prepared using a random prime labeling system (Amersham Pharmacia, Piscataway, N.J., USA). A 210 bp mouse CREBH cDNA fragment, a 250 bp mouse CRP cDNA fragment and a 260 bp mouse SAP cDNA fragment were amplified from murine total RNA by reverse transcription-PCR system (Roche Applied Science), respectively, and were used as probes for Northern blot analyses. Total RNA (15 μg) per sample purified from cultured cells or murine tissues was used for Northern blot analysis. Quantitative real-time RT-PCR was performed as previously described (Back et al., 2005). Briefly, total cellular RNA prepared was reverse-transcribed to cDNA using a random primer (Applied Biosystems). The reaction mixture, containing SYBR Green PCR Master Mix (Applied Biosystems), was run in a 7900HT Fast Real-Time PCR System (Applied Biosystems). Real-time PCR primer sequences for quantification of murine XBP1 mRNA splicing are: the forward primer 5′-[…]-3′, and the reverse primer 5′-[…]-3′. Other primer sequences were designed by Primer Express (Applied Biosystems).

[1] = system: BiP, CHOP, EDEM, spliced XBP1, SAP and CRP mRNAs; assay: UPR and APR mRNA induction in mouse liver after injection (quantitative real-time RT-PCR); assay type: in vivo; conditions: 24 hours after injection; for fold increases in UPR mRNA levels relative to those observed after injection of Tm: liver; for levels of spliced XBP1 mRNA and mRNA encoding EDEM in the liver: wild-type mice
Procedure: Levels of spliced XBP1 mRNA were determined by quantitative real-time RT-PCR (lower panel). […] (B) Induction of CRP, SAP, BiP and spliced XBP1 mRNAs in mice injected with Tm. C57BU6J mice at 3-months of age were injected intraperitoneally with Tm (2 mg/kg body weight) in 150 mM dextrose solution. Mice were injected with the same volume of dextrose solution as a control. Liver tissues were collected from mice at 24 hours after injection for RNA isolation. (C-E) Induction of the BiP, CHOP, EDEM, spliced XBP1, SAP and CRP mRNAs in mice challenged with IL6, IL1β, LPS or Tm. Wild-type C57B1/6J mice at 3-months of age were intraperitoneally injected with recombinant murine IL6 (25 ng/gram body weight), recombinant murine IL1β (25 ng/gram body weight), LPS (3 μg/gram body weight) or Tm (2 μg/gram body weight). Mice were injected with the same volume of NaCL (for panels C and D) or dextrose (for panels E) solution as controls. At 24 hours after injection, liver samples were collected for isolating total RNA. Quantitative real-time RT-PCR was used to determine the mRNA levels. Fold changes of mRNA induction were determined after normalization of the mRNA levels to internal control 18S ribosomal RNA levels. Each bar denotes the mean±S.D., n=5 mice per injection.
Quantitative real-time RT-PCR was performed as previously described (Back et al., 2005). Briefly, total cellular RNA prepared was reverse-transcribed to cDNA using a random primer (Applied Biosystems). The reaction mixture, containing SYBR Green PCR Master Mix (Applied Biosystems), was run in a 7900HT Fast Real-Time PCR System (Applied Biosystems). Real-time PCR primer sequences for quantification of murine XBP1 mRNA splicing are: the forward primer 5′-[sequence]-3′, and the reverse primer 5′-[sequence]-3′. Other primer sequences were designed by Primer Express (Applied Biosystems).

Molecule	cleavage of CREBH to release a 50 kD N-terminal fragment (human CREBH)	induction of CREBH mRNA (CREBH mRNA)	fold increases in UPR mRNA levels relative to those observed after injection of Tm [1]	levels of spliced XBP1 mRNA and mRNA encoding EDEM in the liver [1]
O[C@H](CS)[C@H](O)CS (racemic) [DTT, dithiothreitol]	significantly induced cleavage of CREBH	significantly induced		
C[C@H]1CCC/C=C/[C@@H]2C[C@H](O)C[C@H]2[C@H](O)/C=C/C(=O)O1 [BFA, Brefeldin A]	induced cleavage of CREBH	significantly induced		
C/C=C(/C)C(=O)O[C@H]1C(C)=C2[C@H]([C@@H]1OC(=O)CCCCCCC)[C@@](C)(OC(C)=O)C[C@H](OC(=O)CCC)[C@@]1(O)[C@H]2OC(=O)[C@@]1(C)O [Tg, thapsigargin]	significantly induced cleavage of CREBH	significantly induced		
tumor necrosis factor α [TNFα]	neither of them significantly induced CREBH cleavage	induced in a time-dependent manner		
B1		induced in a time-dependent manner	approximately 50 % of those observed after injection of Tm	also increased
B2	neither of them significantly induced CREBH cleavage	induced in a time-dependent manner	approximately 50 % of those observed after injection of Tm	also increased
